# Patent publication US10806794B2, “Protease inhibitors having enhanced features” (priority 2008, dated 2020)
# Like-named read-outs stand apart in the source and are kept apart here.
# Assays:
# CEM-SS cells = test system: CEM-SS cells
# Method: (§1) To evaluate whether conjugated protease inhibitors retain the ability to protect against HIV-1 infection, CEM-SS cells infected with the RF strain of HIV-1 were treated with test compounds for six days, and then cell viability was monitored using the tetrazolium dye XTT. […] A value for Therapeutic Index (TI) was calculated as TC50/EC50.
# [1] = test system: human liver microsomal proteins; test: Microsomal protein binding by equilibrium dialysis; format: in vitro ADME; settings: human liver microsomes, 3 μM, fraction unbound
# Method: PEGylated protease inhibitors were evaluated for their propensity to be bound by proteins in normal human plasma or in human liver microsome preparations using equilibrium dialysis analysis. For microsomal protein binding, test compound (final concentration=3 μM) was diluted into either buffer alone or buffer containing human liver microsomes. The protein-free and microsome-containing solutions were then added to either side of an equilibrium dialysis system and allowed to reach equilibrium at 37° C. The concentration of compound on both sides of the membrane at equilibrium was quantified by LC-MS/MS, and the fraction of compound that remains unbound (Fu) is calculated.
# human plasma proteins = test: Plasma protein binding by equilibrium dialysis, human plasma; format: in vitro ADME; settings: human plasma, 5 μM, fraction unbound
# Method: In assays to estimate binding of test compounds to plasma proteins, test compound solutions (5 μM) are prepared in buffer and species-specific plasma (final DMSO concentration 0.5%). The plasma-containing solution is added to one side of the membrane of an equilibrium dialysis system, and the plasma-free is added to the other side. Dialysis was allowed to reach equilibrium by incubation for two hours at 37° C. The concentration of compound on both sides of the membrane was measured using LC-MS/MS.
# CYP3A4 = CYP3A4 (Homo sapiens (Human), UniProt P08684); test: CYP450 inhibition in human liver microsomes: CYP3A4;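 also: incubation at 37 °C started by adding 1 mM NADPH, with formation of the probe metabolite measured via LC-MS/MS or fluorescent detection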
# HIV-1RF = test: Anti-HIV cytoprotection in CEM-SS cells infected with HIV-1RF (XTT); format: cell-based; settings: six days, XTT; read-out: CEM-SS/HIV-1RF EC50 ± SD
# Method: as §1
# human hepatocytes = test: Metabolic stability in cryopreserved human hepatocytes; settings: human hepatocytes, 3 uM, incubated up to one hour
# Method: Metabolism of PI conjugates was investigated by monitoring the levels of unmetabolized parent compound following incubation with cryopreserved human or monkey hepatocytes. The use of whole hepatocytes rather than microsomes requires that the drugs cross the cell membrane to interact with intracellularly-localized metabolic enzymes, and thus provides the most relevant in vitro system for understanding overall metabolic stability of these compounds.
# Test compounds (0.1 μM or 3 μM, as indicated) are incubated with cryopreserved human hepatocytes at a cell density of 0.5×10^6 viable cells/mL. […] Duplicate samples (50 μL) are removed from the incubation mixture at various timepoints up to four hours (for 0.1 μM test compound concentration), or one or two hours (for 3 μM test compound concentration), and the reaction is quenched by the addition of methanol containing internal standard (100 μL). The samples are centrifuged (2500 rpm at 4° C. for 20 min), and the supernatants at each time point pooled for cassette analysis by LC-MS/MS.
# [2] = target: recombinant HIV-1 protease (Human immunodeficiency virus type 1 group M subtype B (isolate HXB2) (HIV-1), UniProt P04585); test: Enzyme inhibition of purified HIV-1 protease (SensoLyte 520 HIV-Protease Assay Kit); format: biochemical; settings: read-out: IC50 ± SD
# Method: Protease inhibitors (PI) are used to treat HIV infection by preventing viral assembly and maturation through the inhibition of HIV-1 protease activity. Biochemical assays were performed to evaluate the potential of PEG-PI conjugates to inhibit HIV-1 protease activity, relative to their respective PI parent molecules. Activity assays were performed at using the SensoLyte 520 HIV-Protease Assay Kit (Anaspec Inc., San Jose, Calif.) and recombinant HIV-1 protease. Protease activity was monitored by the formation of a fluorescent reporter product generated during HIV-1 protease-mediated digestion of a quenched, fluorimetric substrate containing the p17/p24 Pr^gag cleavage site.
# Caco-2 cells = test: Bi-directional permeability in Caco-2 monolayers
# Method: Absorption properties of various compounds were measured using bi-directional permeability assays in Caco-2 cells. […] The efflux ratio is calculated as the ratio of the Papp(B→A)/Papp(A→B).
# [3] = read-out: CYP3A4 IC50 Midazolam, probe substrate midazolam
# [4] = read-out: CYP3A4 IC50 Testosterone, probe substrate testosterone
# CYP3A4, sequence (P08684 whole entry): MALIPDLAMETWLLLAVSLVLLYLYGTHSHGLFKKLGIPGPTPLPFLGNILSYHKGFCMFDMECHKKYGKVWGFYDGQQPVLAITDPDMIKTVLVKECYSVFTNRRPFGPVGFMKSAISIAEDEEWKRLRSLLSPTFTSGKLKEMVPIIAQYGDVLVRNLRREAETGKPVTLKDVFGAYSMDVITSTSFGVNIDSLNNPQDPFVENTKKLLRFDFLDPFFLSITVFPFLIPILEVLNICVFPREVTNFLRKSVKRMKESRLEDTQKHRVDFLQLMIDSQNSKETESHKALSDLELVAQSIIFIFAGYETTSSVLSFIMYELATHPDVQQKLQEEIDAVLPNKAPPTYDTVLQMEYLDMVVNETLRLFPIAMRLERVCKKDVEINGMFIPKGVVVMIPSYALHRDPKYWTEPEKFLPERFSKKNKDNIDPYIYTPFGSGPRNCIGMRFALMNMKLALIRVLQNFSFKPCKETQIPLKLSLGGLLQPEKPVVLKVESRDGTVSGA
SMILES,CEM-SS TC50 ± SD (CEM-SS cells) [nM],Microsomal Protein Binding Fu ± SD [1],Plasma Protein Binding Fu ± SD (human plasma proteins),IC50 (CYP3A4; [3]) [nM],IC50 (CYP3A4; [4]) [nM],EC50 (HIV-1RF) [nM],CLint ± SEM (human hepatocytes) [μL/min/10^6 cells],CEM-SS TC50 ± SD (CEM-SS cells; absence of viral infection) [nM],IC50 [2] [nM],Efflux ratio (B→A/A→B) (Caco-2 cells; Caco-2 monolayers),"A→B, ×10^−6 (Caco-2 cells; human, Caco-2) [cm/s]"
CCCC1(CCc2ccccc2)CC(O)=C(C(CC)c2cccc(N(CCOCCOCCOC)S(=O)(=O)c3ccc(C(F)(F)F)cn3)c2)C(=O)O1 (centres unmarked) [mPEG3-amide-Tipranavir],1300,0.73 ± 0.0153,0.014 ± 0.00166,2500,~2100,80,1.66 ± 1.24,–,–,–,–
CCC(C1=C(O)CC(CCCNC(=O)OCCOC)(CCc2ccccc2)OC1=O)c1cccc(NS(=O)(=O)c2ccc(C(F)(F)F)cn2)c1 (mixture of isomers) [mPEG1-OCO—NH-Tipranavir],–,0.85 ± 0.184,0.0145 ± 0.000403,–,–,120,–,49500,0.188,–,–
COCCOCCOCCOCCOCCOCCOC(=O)N[C@@H](C(=O)NC(Cc1ccccc1)[C@@H](O)CN(Cc1ccc(-c2ccccn2)cc1)NC(=O)[C@H](NC(=O)OCCOCCOCCOCCOCCOCCOC)C(C)(C)C)C(C)(C)C (some centres unmarked) [di-mPEG6-Atazanavir],158600,highly unbound,0.868 ± 0.0163,–,–,2540,–,–,15.6,–,–
CCCC1(CCc2ccccc2)CC(O)=C(C(CC)c2cccc(N(CCOCCOCCOCCOCCOC)S(=O)(=O)c3ccc(C(F)(F)F)cn3)c2)C(=O)O1 (centres unmarked) [mPEG5-amide-Tipranavir],12800,highly unbound,0.0308 ± 0.00399,1700,2800,> 200000,3.62 ± 0.527,–,–,–,–
CCC[C@@]1(CCc2ccccc2)CC(O)=C([C@H](CC)c2cccc(N(CCOCCOCCOCCOCCOCCOCCOC)S(=O)(=O)c3ccc(C(F)(F)F)cn3)c2)C(=O)O1 [mPEG7-amide-Tipranavir],14500,highly unbound,0.029 ± 0.00436,2600,~4000,> 200000,0.162 ± 0.343,–,12.2,–,–
CCC(C1=C(O)CC(CCCNC(=O)OCCOCCOCCOCCOCCOC)(CCc2ccccc2)OC1=O)c1cccc(NS(=O)(=O)c2ccc(C(F)(F)F)cn2)c1 (mixture of isomers) [mPEG5-OCO—NH-Tipranavir],–,highly unbound,0.0304 ± 0.000274,–,–,1060,–,86100,0.462,–,–
CCC(C1=C(O)CC(CCCNC(=O)OCCOCCOCCOC)(CCc2ccccc2)OC1=O)c1cccc(NS(=O)(=O)c2ccc(C(F)(F)F)cn2)c1 (mixture of isomers) [mPEG3-OCO—NH-Tipranavir],–,0.816 ± 0.0104,0.0292 ± 0.000428,–,–,870,–,67600,0.617,–,–
CCC(C1=C(O)CC(CCCNC(=O)OC)(CCc2ccccc2)OC1=O)c1cccc(NS(=O)(=O)c2ccc(C(F)(F)F)cn2)c1 (mixture of isomers) [mPEG0-OCO—NH-Tipranavir],–,0.887 ± 0.0749,0.0105 ± 0.00848,–,–,290,–,54300,0.292,–,–
COCCOCCOCCOCCOCCOCCOCCOC(=O)N[C@@H](C(=O)NC(Cc1ccccc1)[C@@H](O)CN(Cc1ccc(-c2ccccn2)cc1)NC(=O)[C@H](NC(=O)OCCOCCOCCOCCOCCOCCOCCOC)C(C)(C)C)C(C)(C)C (some centres unmarked) [di-mPEG7-Atazanavir],>200000,highly unbound,highly unbound,> 50000,> 50000,8350,–,–,10.9,>3.6,0.06
